Patent publication US11564392B2, “Methods of inactivation of viruses using n-methlyglucamide and its derivatives” (BAYER HEALTHCARE LLC, priority 2017, dated 2023)
Entries after “also recorded” stand apart in the source; their conditions may differ. Read-outs that look alike come from different tables or passages of the source.

Legend:
[1] = 25° C.; cited from earlier work
X-MuLV [2] = format: cell-based, xenotropic murine leukemia virus; details: for X-MuLV inactivation (FIG. 4): 0.5×, 1×, 2× of the CMC, room temperature; for X-MuLV inactivation (FIG. 4) / X-MuLV inactivation (FIG. 5): within 30 minutes; for X-MuLV inactivation (FIG. 5): 1× and 2× of the CMC
[3] = format: physicochemical
Description: Each detergent was obtained as powder from the manufacturer and was appropriately weighed and allowed to dissolve in Milli-Q water. […] The detergents were stored in a dark container in 2-8° C. Table 2 lists the manufacturers of the detergent powders and the in-house preparation which are also detailed in the methods section. […] This occurrence has been observed by others as well and may have to do with the increasing fatty chain length that enhances the hydrophobicity thus decreasing the likelihood of solubility, especially in water (Gaber et al., Burczyk, 2007).

PRV = format: cell-based, porcine pseudorabies virus
BVDV = format: cell-based, bovine viral diarrhea virus; details: for BVDV inactivation: Mega 10 0.2, 0.3, 0.4% (w/v), Mega 9 1.0% (w/v), 2.0° C.
X-MuLV [4] = format: cell-based, xenotropic murine leukemia virus
[5] = biological target: T1, recombinant FVIII (rFVIII) (Homo sapiens, UniProt P00451); assay: Chromogenic assay to assess human Factor VIII activity after detergent incubation; format: biochemical; details: 0.3% (w/v)
T1 construct: recombinant human factor VIII (rFVIII) (full length wildtype, Bayer in-house preparation); made in house
Description: A diluent control of rFVIII matrix spiked only with Milli-Q H2O was also prepared and incubated under the same conditions. Following the incubation, detergents and diluent control were diluted in 1× assay buffer along with chromogenic assay (Chromogenix COATEST SP4 FVIII Kit, Cat: 82409463) FVIII standard and controls to the appropriate levels. Thirty μL of each detergent, control, and standard were loaded onto a 96-well plate in triplicate. Chromogenic assay reagents were added according to the manufacturer's protocol and incubated at 37.0° C. and 5.0% CO2 for 8 minutes. Assay plate was measured for absorbance t 405 and 492 nm on a Molecular Devices SpectraMax M5 microplate reader. Data was analyzed using SoftMax Pro v5.
The principle of the assay involves a specific step in the blood clotting mechanism, in which Factor X is converted to Factor Xa leading to the hydrolysis of the chromogenic substrate. This reaction is dependent on the activity of Factor VIII (FVIII) and directly correlates to measurable color intensity.

X-MuLV [6] = assay: X-MuLV inactivation in rFVIII by methylglucamides with or without Tw20, TnBP or NaCl, TCID50 assay; format: cell-based, xenotropic murine leukemia virus
Description: Methylglucamides were tested with other compounds to determine potential synergistic effects on viral inactivation. […] Then, the titers of each samples or controls were assayed using a TCID50 assay previously described. For each experiment (FIGS. 15, 16 and 17), the controls consisted of rFVIII spiked with X-MuLV with no detergent, and the yielded titers within the expected range of about 6.5 log10 TCID50/ml.

[7] = rFVIII, 2° C., 30 min, Mega 8 1.81%, Mega 9 0.84%, Mega 10 0.20%, Mega 12 0.014% (w/v)
[8] = rFVIII, Room Temperature, 30 min, Mega 8 1.81%, Mega 9 0.45%, Mega 10 0.10%, Mega 12 0.014% (w/v)
[9] = 0.3% (w/v), 2.0° C., 30 minutes
[10] = 0.20% (w/v) Mega 10 or 0.71% (w/v) Mega 9, with or without NaCl

T1 sequence (P00451 20-2351): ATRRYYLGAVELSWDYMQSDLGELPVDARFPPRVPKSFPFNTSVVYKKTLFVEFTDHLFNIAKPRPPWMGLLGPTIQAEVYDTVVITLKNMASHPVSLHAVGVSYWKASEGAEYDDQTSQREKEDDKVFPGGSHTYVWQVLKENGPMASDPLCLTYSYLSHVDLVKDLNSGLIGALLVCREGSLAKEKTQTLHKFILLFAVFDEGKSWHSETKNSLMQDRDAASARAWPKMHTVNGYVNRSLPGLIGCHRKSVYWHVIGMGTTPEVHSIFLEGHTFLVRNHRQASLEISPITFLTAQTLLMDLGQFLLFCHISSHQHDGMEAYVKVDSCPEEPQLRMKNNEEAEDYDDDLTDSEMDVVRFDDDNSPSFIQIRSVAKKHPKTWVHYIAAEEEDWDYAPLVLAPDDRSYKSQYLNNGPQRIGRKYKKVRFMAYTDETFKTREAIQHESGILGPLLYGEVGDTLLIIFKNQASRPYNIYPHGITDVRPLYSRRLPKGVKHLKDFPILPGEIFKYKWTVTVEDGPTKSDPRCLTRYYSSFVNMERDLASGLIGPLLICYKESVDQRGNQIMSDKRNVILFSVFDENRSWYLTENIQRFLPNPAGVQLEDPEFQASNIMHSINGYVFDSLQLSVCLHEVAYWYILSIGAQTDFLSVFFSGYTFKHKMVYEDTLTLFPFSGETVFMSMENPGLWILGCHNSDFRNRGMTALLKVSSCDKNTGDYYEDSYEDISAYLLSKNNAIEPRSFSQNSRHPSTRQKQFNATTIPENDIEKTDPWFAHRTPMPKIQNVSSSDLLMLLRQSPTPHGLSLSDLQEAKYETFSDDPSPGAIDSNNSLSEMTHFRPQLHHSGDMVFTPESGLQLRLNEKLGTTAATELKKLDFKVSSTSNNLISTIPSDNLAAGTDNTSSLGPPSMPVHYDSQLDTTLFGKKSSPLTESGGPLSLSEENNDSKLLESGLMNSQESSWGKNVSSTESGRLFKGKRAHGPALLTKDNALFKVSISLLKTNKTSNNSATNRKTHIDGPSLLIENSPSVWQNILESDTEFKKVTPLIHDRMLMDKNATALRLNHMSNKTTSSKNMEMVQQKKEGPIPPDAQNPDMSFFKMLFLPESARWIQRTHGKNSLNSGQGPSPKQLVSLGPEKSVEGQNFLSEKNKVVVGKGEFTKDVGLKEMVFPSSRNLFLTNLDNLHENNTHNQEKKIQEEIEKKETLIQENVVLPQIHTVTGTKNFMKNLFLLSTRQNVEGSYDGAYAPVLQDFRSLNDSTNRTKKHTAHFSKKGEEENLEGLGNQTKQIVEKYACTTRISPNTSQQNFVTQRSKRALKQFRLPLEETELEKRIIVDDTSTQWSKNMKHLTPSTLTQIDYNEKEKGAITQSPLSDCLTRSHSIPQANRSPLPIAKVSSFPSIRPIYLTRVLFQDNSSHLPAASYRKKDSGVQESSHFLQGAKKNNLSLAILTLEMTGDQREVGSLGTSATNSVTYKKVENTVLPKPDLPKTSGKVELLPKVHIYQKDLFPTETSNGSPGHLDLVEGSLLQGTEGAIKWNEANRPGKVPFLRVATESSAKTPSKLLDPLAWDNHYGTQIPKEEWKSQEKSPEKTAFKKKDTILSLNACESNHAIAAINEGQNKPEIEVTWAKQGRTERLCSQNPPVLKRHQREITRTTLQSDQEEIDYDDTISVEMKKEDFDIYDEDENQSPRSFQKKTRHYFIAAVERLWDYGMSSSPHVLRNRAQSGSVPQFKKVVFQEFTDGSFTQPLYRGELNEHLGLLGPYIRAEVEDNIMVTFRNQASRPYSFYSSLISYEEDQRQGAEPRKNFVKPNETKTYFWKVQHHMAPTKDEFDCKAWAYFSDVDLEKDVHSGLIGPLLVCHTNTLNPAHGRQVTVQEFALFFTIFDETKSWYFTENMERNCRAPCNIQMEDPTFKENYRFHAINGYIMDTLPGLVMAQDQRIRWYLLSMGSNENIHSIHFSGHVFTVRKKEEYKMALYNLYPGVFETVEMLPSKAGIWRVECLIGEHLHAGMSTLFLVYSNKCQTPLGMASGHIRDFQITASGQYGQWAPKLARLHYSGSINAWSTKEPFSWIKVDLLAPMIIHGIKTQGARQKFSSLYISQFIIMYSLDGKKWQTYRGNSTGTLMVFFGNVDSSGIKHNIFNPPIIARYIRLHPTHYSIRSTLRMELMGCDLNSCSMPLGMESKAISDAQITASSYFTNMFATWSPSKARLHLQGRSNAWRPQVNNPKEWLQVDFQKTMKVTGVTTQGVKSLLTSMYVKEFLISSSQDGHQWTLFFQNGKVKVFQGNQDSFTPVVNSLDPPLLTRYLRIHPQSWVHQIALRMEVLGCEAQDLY
T1 sequence (P00451 1668-2351 limits assumed): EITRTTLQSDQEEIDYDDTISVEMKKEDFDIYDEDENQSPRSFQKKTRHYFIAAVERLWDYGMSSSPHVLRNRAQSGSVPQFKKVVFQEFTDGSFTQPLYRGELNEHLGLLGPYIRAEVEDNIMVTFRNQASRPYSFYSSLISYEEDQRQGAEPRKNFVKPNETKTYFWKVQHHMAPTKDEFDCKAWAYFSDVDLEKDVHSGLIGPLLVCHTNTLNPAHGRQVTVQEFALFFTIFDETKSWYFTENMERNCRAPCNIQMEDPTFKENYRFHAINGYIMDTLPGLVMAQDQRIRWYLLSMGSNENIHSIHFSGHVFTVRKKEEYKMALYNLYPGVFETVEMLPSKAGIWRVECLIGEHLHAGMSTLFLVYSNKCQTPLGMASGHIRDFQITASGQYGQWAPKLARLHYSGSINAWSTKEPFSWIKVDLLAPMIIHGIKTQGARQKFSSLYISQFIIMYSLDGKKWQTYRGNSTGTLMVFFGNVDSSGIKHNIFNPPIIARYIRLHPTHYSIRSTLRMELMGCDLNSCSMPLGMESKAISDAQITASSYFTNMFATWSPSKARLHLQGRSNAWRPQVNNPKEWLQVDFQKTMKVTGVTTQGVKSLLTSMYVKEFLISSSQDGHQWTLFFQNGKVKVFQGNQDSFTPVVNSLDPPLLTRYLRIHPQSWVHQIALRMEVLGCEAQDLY

CCCCCCCC(=O)N(C)C[C@H](O)[C@@H](O)[C@H](O)[C@H](O)CO [Mega 8, octanoyl-N-methylglucamide]
CMC [1]: 58 mM
X-MuLV inactivation (FIG. 4) (X-MuLV [2]): completely inactivated
X-MuLV inactivation (X-MuLV [2]; 0.5×CMC, 2° C., 30 minutes): No significant inactivation
X-MuLV inactivation (X-MuLV [2]; 0.5×CMC, 25° C., 30 minutes): No significant inactivation
X-MuLV inactivation (FIG. 5) (X-MuLV [2]; 2.0° C.): completely inactivated
Infection observed (X-MuLV [2]; [7]): No
Log Reduction Factor (LRF) (X-MuLV [2]; [7]): ≥4.37
Infection observed (X-MuLV [2]; [8]): No
Log Reduction Factor (LRF) (X-MuLV [2]; [8]): ≥4.32
solubilization of 5% (w/v) detergent in water [3]: readily solubilized in water at room temperature

CCCCCCCCCC(=O)N(C)C[C@H](O)[C@@H](O)[C@H](O)[C@H](O)CO [Mega 10, decanoyl-N-methylglucamide]
PRV titer (limit of detection) (PRV; 0.2 and 0.3%, 2.0±1.0° C., 15 minutes): ≤ 2.03 Log10 TCID50/mL
time to inactivate PRV to the limit of detection (PRV; 0.2 or 0.3 (w/v), 2.0° C.): ≤ 15 min
speed of BVDV inactivation (BVDV; 0.2%): immediately after mixing
BVDV inactivation (BVDV; 30 minutes): completely inactivated
CMC [1]: 6 to 7 mM
X-MuLV titer (limit of detection) (X-MuLV [4]): ≤ 2.03 Log10 TCID50/mL
X-MuLV inactivation (X-MuLV [4]; 0.2, 0.3, 0.4% (w/v) in human IgG and human plasma protein solutions, 2.0° C., 30 minutes): completely inactivated
Infection Observed (X-MuLV [2]): No
Infection observed (X-MuLV [2]): No
LRF (X-MuLV [2]): ≥ 24.45
X-MuLV inactivation kinetics (X-MuLV [2]): immediate decrease (complete inactivation); also recorded: immediately inactivated
X-MuLV titer after treatment (limit of detection) (X-MuLV [2]): ≤ 2.03 TCID50/mL
lowest concentration to quickly and completely inactivate X-MuLV (X-MuLV [2]): approximately 0.23%
time to reach limit of detection (LOD) (X-MuLV [2]): ≤ 5 min
virus titer (X-MuLV [2]): about 2.62 Log10 TCID50/mL
virus titer (complete inactivation) (X-MuLV [2]): ≤ 2.03 Log10 TCID50/mL
X-MuLV inactivation (X-MuLV [2]; [9]): complete X-MuLV inactivation; also recorded: inactivated X-MuLV completely
X-MuLV inactivation (FIG. 4) (X-MuLV [2]): completely inactivated
X-MuLV inactivation (X-MuLV [2]; 0.5×CMC, 2° C., 30 minutes): partially
X-MuLV inactivation (X-MuLV [2]; 0.5×CMC, 25° C., 30 minutes): completely
X-MuLV inactivation (FIG. 5) (X-MuLV [2]; 2.0° C.): completely inactivated
Infection observed (X-MuLV [2]; [7]): No
Log Reduction Factor (LRF) (X-MuLV [2]; [7]): ≥4.37
Infection observed (X-MuLV [2]; [8]): No
Log Reduction Factor (LRF) (X-MuLV [2]; [8]): ≥4.32
solubilization of 5% (w/v) detergent in water [3]: solubilize within 15 minutes
effect on rFVIII activity ([5]; 2.0° C., 2 hour incubation): maintains its activity; also recorded: no effect on the activity of the protein drug
average activity of rFVIII ([5]; 2.0±1.0° C., 2 hours): 52.26 IU/mL
X-MuLV inactivation (X-MuLV [6]; [10]): significantly inactivated
X-MuLV inactivation (X-MuLV [6]; 0.30% (w/v) M10 alone, +0.06% (w/v) Tw20, or +0.30% (w/v) TnBP, within 30 min): completely inactivated

CCCCCCCCCCCC(=O)N(C)CC(O)C(O)C(O)C(O)CO (stereo not shown) [Mega 12, dodecanoyl-N-methylglucamide]
CMC [1]: 0.35 mM
X-MuLV inactivation (FIG. 4) (X-MuLV [2]): completely inactivated
X-MuLV inactivation (X-MuLV [2]; 0.5×CMC, 2° C., 30 minutes): No significant inactivation
X-MuLV inactivation (X-MuLV [2]; 0.5×CMC, 25° C., 30 minutes): No significant inactivation
X-MuLV inactivation (FIG. 5) (X-MuLV [2]; 2.0° C.): completely inactivated
Infection observed (X-MuLV [2]; [7]): No
Log Reduction Factor (LRF) (X-MuLV [2]; [7]): ≥4.37
Infection observed (X-MuLV [2]; [8]): No
Log Reduction Factor (LRF) (X-MuLV [2]; [8]): ≥4.32
solubilization of 0.15% stock in water [3]: able to come into solution when placed in a 60 °C water bath within 15 minutes
solubilization of 5% (w/v) detergent in water [3]: not able to dissolve water in a 37 °C water bath

CCCCCCCCC(=O)N(C)C[C@H](O)[C@@H](O)[C@H](O)[C@H](O)CO [Mega 9, nonaoyl-N-methylglucamide]
time to inactivate BVDV to the LOD (BVDV; 1.0% (w/v)): ≤ 30 min
BVDV titer (detection limit) (BVDV; 1.0% (w/v), 2.0±1.0° C., 30 minutes): ≤ 2.03 Log10 TCID50/mL
BVDV inactivation (BVDV; 30 minutes): completely inactivated
CMC [1]: 19 to 25 mM
X-MuLV inactivation (FIG. 4) (X-MuLV [2]): completely inactivated
X-MuLV inactivation (X-MuLV [2]; 0.5×CMC, 2° C., 30 minutes): partially
X-MuLV inactivation (X-MuLV [2]; 0.5×CMC, 25° C., 30 minutes): completely
X-MuLV inactivation (FIG. 5) (X-MuLV [2]; 2.0° C.): completely inactivated
Infection observed (X-MuLV [2]; [7]): No
Log Reduction Factor (LRF) (X-MuLV [2]; [7]): ≥4.37
Infection observed (X-MuLV [2]; [8]): No
Log Reduction Factor (LRF) (X-MuLV [2]; [8]): ≥4.32
solubilization of 5% (w/v) detergent in water [3]: readily solubilized in water at room temperature
X-MuLV inactivation (X-MuLV [6]; [10]): significantly inactivated

P-tert-Octylphenoxy) polyethoxyethanol [Triton X-100, reference compound]
X-MuLV inactivation (X-MuLV [2]; [9]): complete X-MuLV inactivation; also recorded: inactivated X-MuLV completely
X-MuLV titer after treatment (limit of detection) (X-MuLV [2]; [9]): ≤ 2.54 TCID50/mL
